Results as given in patent US20230416268A1, “PYRIMIDINONE-CONTAINING 17-BETA-HYDROXYSTEROID DEHYDROGENASE TYPE 13 INHIBITORS” (ENANTA PHARMACEUTICALS, INC., priority 2022, published 2023).

Target: Recombinant human 17β-HSD13 (Homo sapiens (Human), UniProt Q7Z5P4)
Experiment: 17β-HSD13 rapid-fire mass spectrometry assay (RF/MS assay)
Type: biochemical
Conditions: HSD17B13 80 nM, LTB4 10 μM, NAD+ 0.5 mM, RT 3 h, RF/MS readout
Procedure: 17β-HSD13 rapid-fire mass spectrometry assay (RF/MS assay). Recombinant human 17β-HSD13 was expressed and purified from sf9 cells at Charles River Labs (Saffron Walden, UK). […] The assays were quenched by adding 20 μL of 0.15% aqueous formic acid and the plates were frozen at −80° C. RF/MS analysis was performed at PureHoney Technologies (Billerica, MA) on a RapidFire RF300 system (Agilent Technologies, Inc.) coupled to an API 4000 triple quadrupole mass spectrometer (Sciex) equipped with Agilent RapidFire cartridge type A (C4). The mobile phase was 0.09% formic acid and 0.01% trifluoracetic acid in water (Buffer A) and 0.09% formic acid and 0.01% trifluoracetic acid in 80% aqueous acetonitrile (Buffer B). The RapidFire method conditions were the following: 250 ms aspirate, 3000 ms load/desalt, 4000 ms elute, and 500 ms re-equilibrate. RF-MS/MS was performed in negative polarity (−4500 V), the source temperature was 650° C., and gas 1 and gas 2 settings for nitrogen were set to 50. The curtain gas and collision gas were also nitrogen and were set to 20 and 12, respectively.
Data Analysis. 17β-HSD13 enzyme activity was measured as percent conversion of extracted ion counts and normalized to high and low controls to determine percent residual activity at various concentrations of test compounds. Data were fitted to normalized activity (variable slope) versus concentration fit in GraphPad Prism 7 to determine IC50. All experiments were run in duplicates.

Recombinant human 17β-HSD13, sequence (Q7Z5P4 20-300): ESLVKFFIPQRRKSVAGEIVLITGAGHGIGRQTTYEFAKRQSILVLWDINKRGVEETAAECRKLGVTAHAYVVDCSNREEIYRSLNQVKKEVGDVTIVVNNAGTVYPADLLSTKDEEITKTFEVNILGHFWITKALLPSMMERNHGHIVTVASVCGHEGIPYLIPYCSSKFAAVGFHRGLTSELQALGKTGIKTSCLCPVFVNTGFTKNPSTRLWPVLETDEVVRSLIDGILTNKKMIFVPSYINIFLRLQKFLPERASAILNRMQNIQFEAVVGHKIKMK

| Compound | IC50 |
| --- | --- |
| COc1ccc(-c2nc3sc4c(OC(=O)C(C)C)cccc4c3c(=O)n2Cc2cnco2)c(C2CC2)c1 [Example 88] | 1000 to 10000 nM |
| COc1ccc(-c2nc3sc4c(O)cccc4c3c(=O)n2CCNC(=O)c2ccncc2)c(C2CC2)c1 [Example 38] | 100 to 1000 nM |
| COc1ccc(-c2nc3sc4c(OP(=O)(O)O)cccc4c3c(=O)n2Cc2nnn(C)n2)c(C2CC2)c1 [Example 71] | 1000 to 10000 nM |
| CCCn1c(-c2ccc(OC)cc2C2CC2)nc2sc3c(O)cccc3c2c1=O [Example 57] | 100 to 1000 nM |
| COc1ccc(-c2nc3sc4c(O)cccc4c3c(=O)n2C/C=C/CSc2ccccc2)c(C2CC2)c1 [Example 52] | 100 to 1000 nM |
| COc1ccc(-c2nc3sc4c(OC(=O)c5ccccc5)cccc4c3c(=O)n2Cc2cnco2)c(C2CC2)c1 [Example 3, 2-(2-cyclopropyl-4-methoxyphenyl)-3-(oxazol-5-ylmethyl)-4-oxo-3,4-dihydrobenzo[4,5]thieno[2,3-d]pyrimidin-8-yl benzoate] | 100 to 1000 nM |
| O=c1c2c(nc(-c3ccc(F)cc3C3CC3)n1CCn1cnnc1)sc1c(O)cccc12 [Example 78] | 100 to 1000 nM |
| COc1ccc(-c2nc3sc4c(O)cccc4c3c(=O)n2CCNS(=O)(=O)c2ccc(F)cc2)c(C2CC2)c1 [Example 50] | 100 to 1000 nM |
| COc1ccc(-c2nc3sc4c(OC(=O)C(C)(C)C)cccc4c3c(=O)n2Cc2cnco2)c(C2CC2)c1 [Example 89] | > 10000 nM |
| O=c1c2c(nc(-c3ccc(F)cc3C3CC3)n1CCn1ccc(C3CC3)n1)sc1c(O)cccc12 [Example 72] | 100 to 1000 nM |
| O=c1c2c(nc(-c3ccc4c(c3)OCO4)n1Cc1ccccc1)sc1c(O)cccc12 [Example 6] | > 10000 nM |
| COc1ccc(-c2nc3sc4c(O)cccc4c3c(=O)n2CC(F)(F)F)c(C2CC2)c1 [Example 58] | 100 to 1000 nM |
| COc1ccc(-c2nc3sc4c(O)cccc4c3c(=O)n2CC2CC2)c(C2CC2)c1 [Example 59] | 100 to 1000 nM |
| O=c1c2c(nc(-c3ccc(F)cc3C3CC3)n1CCCc1nccs1)sc1c(O)cccc12 [Example 84] | < 100 nM |
| Cc1cc(Cn2c(-c3ccc(F)cc3C3CC3)nc3sc4c(O)cccc4c3c2=O)on1 [Example 73] | 1000 to 10000 nM |
| COc1ccc(-c2nc3sc4c(O)cccc4c3c(=O)n2Cc2ccno2)c(C2CC2)c1 [Example 63] | < 100 nM |

| Compound | IC50 |
| --- | --- |
| COC(=O)NCCn1c(-c2ccc(OC)cc2C2CC2)nc2sc3c(O)cccc3c2c1=O [Example 45] | 100 to 1000 nM |
| COc1ccc(-c2nc3sc4c(O)cccc4c3c(=O)n2C2CC2)c(C2CC2)c1 [Example 54] | 100 to 1000 nM |
| COc1ccc(-c2nc3sc4c(O)cccc4c3c(=O)n2Cc2cnc(C)s2)c(C2CC2)c1 [Example 60] | < 100 nM |
| COc1ccc(-c2nc3sc4c(O)cccc4c3c(=O)n2CCN2CCN(C)CC2)c(C2CC2)c1 [Example 18] | < 100 nM |
| COc1ccc(-c2nc3sc4c(O)cccc4c3c(=O)n2C)c(C2CC2)c1 [Example 53] | < 100 nM |
| O=c1c2c(nc(-c3ccc4c(c3)OCCO4)n1Cc1ccccc1)sc1c(O)cccc12 [Example 4] | 100 to 1000 nM |
| COc1ccc(-c2nc3sc4c(O)cccc4c3c(=O)n2Cc2ccccc2)c(Br)c1 [Example 8] | 100 to 1000 nM |
| COc1ccc(-c2nc3sc4c(O)cccc4c3c(=O)n2CCN2CCOCC2)c(C2CC2)c1 [Example 17] | < 100 nM |
| O=c1c2c(nc(-c3ccc(F)cc3C3CC3)n1Cc1cnco1)sc1c(O)cccc12 [Example 69] | < 100 nM |
| O=c1c2c(nc(-c3ccc(F)cc3C3CC3)n1Cc1ccno1)sc1c(O)cccc12 [Example 68] | < 100 nM |
| COc1ccc(-c2nc3sc4c(O)cccc4c3c(=O)n2CCNCc2ccccn2)c(C2CC2)c1 [Example 22] | < 100 nM |
| CC(C)Oc1ccc(-c2nc3sc4c(O)cccc4c3c(=O)n2Cc2ccccc2)cc1 [Example 7] | > 10000 nM |
| COc1ccc(-c2nc3sc4c(O)cccc4c3c(=O)n2C/C=C/CO)c(C2CC2)c1 [Example 43] | < 100 nM |
| COc1ccc(-c2nc3sc4c(O)cccc4c3c(=O)n2CCN2CCCCC2)c(C2CC2)c1 [Example 20] | < 100 nM |
| COc1ccc(-c2nc3sc4c(O)cccc4c3c(=O)n2CCNCc2cnccn2)c(C2CC2)c1 [Example 28] | < 100 nM |

Second part, the molecule after the results:

| IC50 | Compound |
| --- | --- |
| < 100 nM | COc1ccc(-c2nc3sc4c(O)cccc4c3c(=O)n2Cc2ccncc2)c(C2CC2)c1 [Example 10] |
| < 100 nM | O=c1c2c(nc(-c3ccc(F)cc3C3CC3)n1CCn1cnnn1)sc1c(O)cccc12 [Example 81] |
| < 100 nM | COc1ccc(-c2nc3sc4c(O)cccc4c3c(=O)n2Cc2ccnc(C)c2)c(C2CC2)c1 [Example 12] |
| < 100 nM | COc1ccc(-c2nc3sc4c(O)cccc4c3c(=O)n2C/C=C/COC(=O)N(C)C)c(C2CC2)c1 [Example 36] |
| < 100 nM | COc1ccc(-c2nc3sc4c(O)cccc4c3c(=O)n2Cc2ccccc2)c(C2CC2)c1 [Example 9] |
| < 100 nM | COc1ccc(-c2nc3sc4c(O)cccc4c3c(=O)n2Cc2cncs2)c(C2CC2)c1 [Example 15] |
| < 100 nM | COc1ccc(-c2nc3sc4c(OC(=O)[C@H](C)N)cccc4c3c(=O)n2Cc2cncs2)c(C2CC2)c1 [Example 33] |
| < 100 nM | Cc1ncc(Cn2c(-c3ccc(F)cc3C3CC3)nc3sc4c(O)cccc4c3c2=O)o1 [Example 75] |
| < 100 nM | O=c1c2c(nc(-c3ccc(F)cc3C3CC3)n1CCn1nccn1)sc1c(O)cccc12 [Example 79] |
| < 100 nM | COc1ccc(-c2nc3sc4c(O)cccc4c3c(=O)n2CCNCc2nnn(C)n2)c(C2CC2)c1 [Example 41] |
| < 100 nM | COc1ccc(-c2nc3sc4c(O)cccc4c3c(=O)n2CCNCc2nnnn2C)c(C2CC2)c1 [Example 40] |
| < 100 nM | COc1ccc(-c2nc3sc4c(O)cccc4c3c(=O)n2C/C=C/COc2ccncc2)c(C2CC2)c1 [Example 37] |
| < 100 nM | O=c1c2c(nc(-c3ccc(F)cc3C3CC3)n1Cc1cc(C(F)(F)F)no1)sc1c(O)cccc12 [Example 77] |
| < 100 nM | COc1ccc(-c2nc3sc4c(O)cccc4c3c(=O)n2Cc2csc(C)n2)c(C2CC2)c1 [Example 62] |
| < 100 nM | O=c1c2c(nc(-c3ccc(F)cc3C3CC3)n1Cc1cncs1)sc1c(O)cccc12 [Example 46] |
| < 100 nM | CCC(=O)Oc1cccc2c1sc1nc(-c3ccc(OC)cc3C3CC3)n(Cc3cnco3)c(=O)c12 [Example 2, 2-(2-cyclopropyl-4-methoxyphenyl)-3-(oxazol-5-ylmethyl)-4-oxo-3,4-dihydrobenzo[4,5]thieno[2,3-d]pyrimidin-8-yl propionate] |
| < 100 nM | COc1ccc(-c2nc3sc4c(O)cccc4c3c(=O)n2CCNCc2nnn[nH]2)c(C2CC2)c1 [Example 34] |
| < 100 nM | COc1ccc(-c2nc3sc4c(O)cccc4c3c(=O)n2Cc2cnc(C)o2)c(C2CC2)c1 [Example 67] |
| < 100 nM | CCOC(=O)C1CC1Cn1c(-c2ccc(OC)cc2C2CC2)nc2sc3c(O)cccc3c2c1=O (centres unmarked) [Example 51] |

| IC50 | Compound |
| --- | --- |
| < 100 nM | COc1ccc(-c2nc3sc4c(O)cccc4c3c(=O)n2Cc2cc(C)no2)c(C2CC2)c1 [Example 66] |
| < 100 nM | COc1ccc(-c2nc3sc4c(O)cccc4c3c(=O)n2CCNCc2cn[nH]c2)c(C2CC2)c1 [Example 30] |
| < 100 nM | CC(C)Oc1ccc(-c2nc3sc4c(O)cccc4c3c(=O)n2Cc2ccno2)c(C2CC2)c1 [Example 82] |
| < 100 nM | COc1ccc(-c2nc3sc4c(O)cccc4c3c(=O)n2C/C=C/C(=O)N(C)C)c(C2CC2)c1 [Example 42] |
| < 100 nM | COc1ccc(-c2nc3sc4c(O)cccc4c3c(=O)n2CCNCc2cccnc2)c(C2CC2)c1 [Example 23] |
| < 100 nM | O=c1c2c(nc(-c3ccc(F)cc3C3CC3)n1CCCc1nc3ccccc3s1)sc1c(O)cccc12 [Example 85] |
| < 100 nM | COc1ccc(-c2nc3sc4c(O)cccc4c3c(=O)n2CCN(C)Cc2cccnc2)c(C2CC2)c1 [Example 27] |
| < 100 nM | O=c1c2c(nc(-c3ccc(F)cc3C3CC3)n1CCn1ccnn1)sc1c(O)cccc12 [Example 80] |
| < 100 nM | COc1ccc(-c2nc3sc4c(O)cccc4c3c(=O)n2Cc2cnco2)c(C2CC2)c1 [Example 64] |
| < 100 nM | O=c1c2c(nc(-c3ccc(F)cc3C3CC3)n1Cc1cnoc1)sc1c(O)cccc12 [Example 70] |
| < 100 nM | COc1ccc(-c2nc3sc4c(O)cccc4c3c(=O)n2CCN(C)C)c(C2CC2)c1 [Example 25] |
| < 100 nM | COc1ccc(-c2nc3sc4c(O)cccc4c3c(=O)n2CCN(C)Cc2ccncc2)c(C2CC2)c1 [Example 26] |
| < 100 nM | CCn1c(-c2ccc(OC)cc2C2CC2)nc2sc3c(O)cccc3c2c1=O [Example 56] |
| < 100 nM | COc1ccc(-c2nc3sc4c(O)ccc(Cl)c4c3c(=O)n2Cc2cnco2)c(C2CC2)c1 [Example 91] |
| < 100 nM | O=c1c2c(nc(-c3ccc(F)cc3C3CC3)n1CCCc1nc3ccccc3o1)sc1c(O)cccc12 [Example 86] |
| < 100 nM | CC(C)Oc1ccccc1-c1nc2sc3c(O)cccc3c2c(=O)n1Cc1cncs1 [Example 49] |
| < 100 nM | C=CCn1c(-c2ccc(OC)cc2C2CC2)nc2sc3c(O)cccc3c2c1=O [Example 65] |
| < 100 nM | COc1ccc(-c2nc3sc4c(O)cccc4c3c(=O)n2Cc2ccnc(Cl)c2)c(C2CC2)c1 [Example 13] |
